Experimental data as given in patent publication US7579334B2, “Compounds with anti-inflammatory activity” (GlaxoSmithKline Istrazivacki Centar Zagreb, priority 2003, dated 2009).

How the values were obtained:
[1] = system: Male Wistar rats; assay: Cold stress model; type: in vivo; conditions: standard 1 mg/kg once daily over three days, cold stress at 4° C. for 1 hour; P<0.05, T-test
Procedure: Male Wistar rats with a body weight of 200-250 g (our own breeding) were randomly divided into groups. The carrier (lactose) in the volume of 0.5 mL/100 g s.c. was applied to the negative and positive control group. Test substances and the standard were applied once daily over three days in the dose of 2 mg/kg in the volume of 0.5 mL/100 g of body weight. The standard was applied in the dose of 1 mg/kg, in the volume of 0.5 mL/100 g of body weight.
On day three, 2 hours after the last treatment, all animals, except for the negative control group, were subjected to cold stress at 4° C. for 1 hour. After the stress, the animals were anaesthetized with thiopental (Pliva d.d.) and blood from all animals was drawn on K2 EDTA into test tubes. Plasma samples were frozen at −70° C. Corticosterone levels were determined by fluorimetric method according to Silber. Thymuses were removed from animals and weighed, and their weights were compared with the negative and positive control.

[2] = system: Male Balb/C mice; assay: Model of lung eosinophilia in mice; type: in vivo; conditions: OVA-sensitised and challenged mice, daily i.n. or i.p.; t-test, p<0.05
Procedure: Model of Lung Eosinophilia in Mice Male Balb/C mice with a body weight of 20-25 g were randomly divided into groups, and sensitised by an i.p. injection of ovalbumin (OVA, Sigma) on day zero and day fourteen. On the twentieth day, the mice were subjected to a challenge test by i.n. (intranasal) application of OVA (positive control or test groups) or PBS (negative control). 48 hours after i.n. application of OVA, the animals were anaesthetized and the lungs were rinsed with 1 mL of PBS. The cells were separated on Cytospin 3 cytocentrifuge (Shandon). The cells were stained in Diff-Quick (Dade) and the percentage of eosinophils was determined by differential counting of at least 100 cells. Fluticasone (GlaxoWellcome) and beclomethasone ([…].) were used as standard substances, with positive and negative control. The compounds were administered daily i.n. or i.p. in different doses 2 days before the challenge test and up to the completion of the test.

[3] = target: T1, alpha isoform of human glucocorticoid receptor (Homo sapiens, UniProt P04150); assay: Assay of binding to human glucocorticoid receptor ([3H]dexamethasone displacement in transfected COS-1 cells); conditions: 24 nM [3H]dexamethazone, COS-1 cells transfected with human GR alpha, 90 minutes at 37° C.
T1 construct: expressed in transfected cells; host or cells: COS-1 cells, transient transfection with pcDNA3.1 Hygro(+) carrying the GR alpha cDNA
T1 sequence (P04150 1-777): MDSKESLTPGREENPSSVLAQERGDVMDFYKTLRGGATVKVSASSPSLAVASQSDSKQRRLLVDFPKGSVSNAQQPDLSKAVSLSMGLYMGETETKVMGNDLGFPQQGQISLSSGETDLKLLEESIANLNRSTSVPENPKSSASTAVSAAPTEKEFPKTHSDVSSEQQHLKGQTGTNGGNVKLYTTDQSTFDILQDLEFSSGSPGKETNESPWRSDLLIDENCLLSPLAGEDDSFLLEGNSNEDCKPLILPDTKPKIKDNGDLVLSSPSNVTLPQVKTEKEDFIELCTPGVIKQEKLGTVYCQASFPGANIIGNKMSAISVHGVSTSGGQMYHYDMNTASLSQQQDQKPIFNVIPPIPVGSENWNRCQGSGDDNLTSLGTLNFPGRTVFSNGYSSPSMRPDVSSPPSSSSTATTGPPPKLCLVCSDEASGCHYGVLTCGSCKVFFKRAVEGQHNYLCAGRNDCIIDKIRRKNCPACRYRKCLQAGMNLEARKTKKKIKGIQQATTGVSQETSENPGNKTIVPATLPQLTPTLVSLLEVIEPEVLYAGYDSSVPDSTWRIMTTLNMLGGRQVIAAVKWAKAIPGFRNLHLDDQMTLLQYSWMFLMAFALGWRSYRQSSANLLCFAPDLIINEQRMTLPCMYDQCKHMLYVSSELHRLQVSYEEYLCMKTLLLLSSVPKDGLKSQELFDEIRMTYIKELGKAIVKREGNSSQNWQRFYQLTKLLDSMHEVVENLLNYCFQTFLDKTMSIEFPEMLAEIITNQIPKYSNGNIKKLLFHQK
Procedure: Assay of Binding to Human Glucocorticoid Receptor The gene for the alpha isoform of human glucocorticoid receptor was cloned by reverse polymerase chain reaction. The total RN A was isolated from human peripheral blood lymphocytes according to the instructions of the manufacturer (Qiagen), transcripted into cDNA with AMV reverse transcriptase (Roche) and the gene was multiplied by specific primers 1) [NT] ID NO:1] and 2) [NT] NO:1]. […] The medium was removed and 1 μg of DNA, 7 μl of PLUS reagent and 2 μl of Lipofectamin (Life Technologies) in 500 μl of DMEM were added per well. The cells were incubated at 37° C. in an atmosphere with 5% CO2 and after 5 hours the same volume of 20% FBS/DMEM was added. After 24 hours, the medium was completely changed. 48 hours after transfection, the test compounds in different concentrations and 24 nM [^3H]dexamethazone (Pharmacia) in DMEM medium were added. The cells were incubated for 90 minutes at 37° C. in an atmosphere with 5% CO2, washed three times with PBS buffer (Sigma) cooled to 4° C. (pH=7.4), and then lysed in Tris buffer (pH=8.0) (Sigma) with 0.2% of SDS (Sigma). After the addition of UltimaGold XR (Packard) scintillation liquid, the residual radioactivity was read in a Tricarb (Packard) β-scintillation counter.

Compound | corticosterone plasma levels [1] | weight of the thymus [1] | number of eosinophils in the lung rinse with respect to positive control [2] | affinity for glucocorticoid receptor (displacement of radioactive dexamethasone) [3]
CCCC1O[C@@H]2C[C@H]3[C@@H]4CCC5=CC(=O)C=C[C@]5(C)[C@H]4[C@@H](O)C[C@]3(C)[C@]2(C(=O)CO)O1 (stereo partly drawn) [budesonide] | statistically significantly reduced | reduced the weight of the thymus |  | 
CC[C@H]1OC(=O)[C@H](C)[C@@H](O)[C@H](C)[C@@H](O)[C@](C)(O)C[C@@H](C)CN(CCCNC(=O)[C@H]2[C@H](C)CC3C4CCC5=CC(=O)C=C[C@]5(C)[C@@]4(F)[C@@H](O)C[C@@]32C)[C@H](C)[C@@H](O)[C@]1(C)O (stereo partly drawn) [Compound 2] |  |  | statistically significantly reduced | have the affinity for glucocorticoid receptor
C[C@@H]1C[C@H]2[C@@H]3C[C@H](F)C4=CC(=O)C=C[C@]4(C)[C@@]3(F)[C@@H](O)C[C@]2(C)[C@@]1(O)C(=O)SCF [fluticasone] | statistically significantly reduced | reduced the weight of the thymus |  | 
